Results as given in ChEMBL document CHEMBL1201862, “PubChem BioAssay data set” (2004).
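How tested: cells in 96-well plates exposed to compound for 48 hours at five concentrations. Here, GI50 denotes the concentration required for 50% inhibition of growth.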 The source made the active and inactive calls. Rule as the data show it: active = GI50 up to about 1.1 µM and inactive = higher.

Tests used:
Test in all cases: NCI-60 cell line screen, 48 h
COLO 205 = system: COLO 205
HCT-116 = system: HCT-116
HT-29 = system: HT-29
IGROV-1 = system: IGROV-1
KM12 = system: KM12
M14 = system: M14
NCI-H226 = system: NCI-H226
NCI-H23 = system: NCI-H23
NCI-H460 = system: NCI-H460
NCI-H522 = system: NCI-H522
OVCAR-4 = system: OVCAR-4
PC-3 = system: PC-3
SF-268 = system: SF-268
SF-295 = system: SF-295
SF-539 = system: SF-539
SK-MEL-2 = system: SK-MEL-2
SN12C = system: SN12C
SNB-75 = system: SNB-75
TK-10 = system: TK-10
UACC-62 = system: UACC-62

Structure (SMILES) | GI50 (COLO 205) | GI50 (HCT-116) | GI50 (HT-29) | GI50 (IGROV-1) | GI50 (KM12) | GI50 (M14) | GI50 (NCI-H226) | GI50 (NCI-H23) | GI50 (NCI-H460) | GI50 (NCI-H522) | GI50 (OVCAR-4) | GI50 (PC-3) | GI50 (SF-268) | GI50 (SF-295) | GI50 (SF-539) | GI50 (SK-MEL-2) | GI50 (SN12C) | GI50 (SNB-75) | GI50 (TK-10) | GI50 (UACC-62)
CC(=O)OCC1OC(n2c(C)cc(C)c(C#N)c2=S)C(OC(C)=O)C(OC(C)=O)C1OC(C)=O (stereo not given) | > 100 µM (inactive) | > 100 µM (inactive) | > 100 µM (inactive) | > 100 µM (inactive) | > 100 µM (inactive) | > 100 µM (inactive) | > 100 µM (inactive) | > 100 µM (inactive) | > 100 µM (inactive) | > 100 µM (inactive) | > 100 µM (inactive) | > 100 µM (inactive) | > 100 µM (inactive) | > 100 µM (inactive) | > 100 µM (inactive) | > 100 µM (inactive) | > 100 µM (inactive) | > 100 µM (inactive) | > 100 µM (inactive) | > 100 µM (inactive)
COc1c(C)c(OCC=C(C)C)cc(CO)c1CO | 58.6 µM (inactive) | 32.6 µM (inactive) | 54.5 µM (inactive) | 38.2 µM (inactive) | 63 µM (inactive) | > 100 µM (inactive) | 87.3 µM (inactive) | 38.7 µM (inactive) | 38.7 µM (inactive) | 7.46 µM (inactive) | 35.6 µM (inactive) | 36 µM (inactive) | > 100 µM (inactive) | 45.4 µM (inactive) | 53.7 µM (inactive) | 71.4 µM (inactive) | 88.3 µM (inactive) | 47.6 µM (inactive) | 89.5 µM (inactive) | 60.8 µM (inactive)
CCOC(CN(C)C(=O)Nc1cccc2ccccc12)OCC | > 10 µM (inactive) | > 10 µM (inactive) | > 10 µM (inactive) | > 10 µM (inactive) | > 10 µM (inactive) | > 10 µM (inactive) | > 10 µM (inactive) | > 10 µM (inactive) | > 10 µM (inactive) | > 10 µM (inactive) | > 10 µM (inactive) | > 10 µM (inactive) | > 10 µM (inactive) | > 10 µM (inactive) | > 10 µM (inactive) | > 10 µM (inactive) | > 10 µM (inactive) | > 10 µM (inactive) | > 10 µM (inactive) | > 10 µM (inactive)
COc1cc(C2c3cc4c(cc3[C@@H](Nc3ccc([N+](=O)[O-])cc3)C3COC(=O)[C@H]23)OCO4)cc(OC)c1O (stereo not given in full) | 3.79 µM (inactive) | 2.27 µM (inactive) | 2.64 µM (inactive) | 4.72 µM (inactive) | 2.56 µM (inactive) | 1.33 µM (inactive) | 0.67 µM (active) | 0.569 µM (active) | 0.0286 µM (active) | 1.63 µM (inactive) | 12.2 µM (inactive) | 2.16 µM (inactive) | 2.01 µM (inactive) | 0.466 µM (active) | 0.92 µM (active) | 4.26 µM (inactive) | 0.853 µM (active) | 1.19 µM (inactive) | 2.41 µM (inactive) | 0.971 µM (active)
